{"source": "ChEMBL document CHEMBL6127093", "about": "“The evolution of small-molecule Akt inhibitors from hit to clinical candidate” (Eur J Med Chem, 2024)", "key": {"[1]": {"assay": "Antiproliferative activity against human 95-D cells assessed as reduction in cell viability incubated for 24 hrs by MTT assay", "type": "functional, cell-based"}, "KOSC-2": {"test_system": "KOSC-2", "assay": "Antiproliferative activity against human KOSC-2 cells assessed as reduction in cell viability incubated for 24 hrs by MTT assay", "type": "functional, cell-based", "conditions": "KOSC-2, 24 h"}, "[2]": {"assay": "Antiproliferative activity against human KHOS-240S cells assessed as reduction in cell viability incubated for 24 hrs by MTT assay", "type": "functional, cell-based"}, "[3]": {"assay": "Aqueous solubility of compound at pH 7.4", "type": "physicochemical", "conditions": "buffer"}, "[4]": {"assay": "Half life in Sprague-Dawley rat at 2 mg/kg, iv by LC-MS/MS analysis", "type": "ADME, organism-based", "conditions": "in vivo"}, "[5]": {"assay": "Oral bioavailability in CD-1 mouse at 5 mg/kg measured for 24 hrs by LC-MS/MS analysis", "type": "ADME, organism-based", "conditions": "in vivo"}, "[6]": {"assay": "Metabolic stability in mouse hepatocyte assessed as intrinsic clearance", "type": "ADME, cell-based", "conditions": "hepatocytes"}, "[7]": {"assay": "Metabolic stability in rat hepatocyte assessed as intrinsic clearance", "type": "ADME, cell-based", "conditions": "hepatocytes"}, "[8]": {"assay": "Clearance in Beagle dog at 0.5 mg/kg, iv", "type": "ADME, organism-based, Canis lupus familiaris", "conditions": "in vivo"}, "[9]": {"assay": "Volume of distribution at steady state in mouse at 5 mg/kg, iv", "type": "ADME, organism-based", "conditions": "in vivo, read-out: Vdss"}, "[10]": {"assay": "Volume of distribution at steady state in rat at 1 mg/kg, iv", "type": "ADME, organism-based", "conditions": "in vivo, read-out: Vdss"}, "[11]": {"assay": "Volume of distribution at steady state in dog at 1 mg/kg, iv", "type": "ADME, organism-based, Canis lupus familiaris", "conditions": "in vivo, read-out: Vdss"}, "in vivo [12]": {"assay": "in vivo", "conditions": "mouse"}, "in vivo [13]": {"assay": "in vivo", "conditions": "rat"}, "PC-3 [14]": {"test_system": "PC-3", "assay": "Antitumor activity against human PC-3 cells xenografted in mouse assessed as inhibition of tumor growth at 50 mg/kg, po administered for 15 days relative to control", "type": "functional", "conditions": "PC-3, 360 h, time 15 day, read-out: TGI"}, "PC-3 [15]": {"test_system": "PC-3", "assay": "Antitumor activity against human PC-3 cells xenografted in CD-1 mouse assessed as tumor growth inhibition at 100 mg/kg, po bid administration relative to control", "type": "functional", "conditions": "read-out: TGI"}, "[16]": {"assay": "Microsomal stability in human liver microsomes assessed as half life", "type": "ADME, Microsome"}}, "data": [{"smiles": "Cn1nccc1-c1ccc(C(=O)N[C@@H]2CNCC[C@H]2c2ccc(F)c(F)c2)c(F)c1", "values": [{"measurement": "IC50", "setting": "[1]", "value": 1030, "unit": "nM"}, {"measurement": "IC50", "setting": "KOSC-2", "value": 7.47, "unit": "µM"}, {"measurement": "IC50", "setting": "[2]", "value": 7.47, "unit": "µM"}]}, {"smiles": "NC(=O)c1cccc2c(N[C@H](CN3CCC3)c3ccc(Cl)c(C(F)(F)F)c3)ncnc12", "note": "[RUPITASERTIB]", "values": [{"measurement": "solubility", "setting": "[3]", "value": 17, "unit": "µg/mL"}, {"measurement": "half-life", "setting": "[4]", "value": 234, "unit": "min"}, {"measurement": "bioavailability", "setting": "[5]", "value": 10, "unit": "%"}]}, {"smiles": "NC1(C(=O)NCc2ccc(Cl)cc2)CCN(c2ncnc3[nH]ccc23)CC1", "values": [{"measurement": "CLH", "setting": "[6]", "value": 10, "unit": "µL/min"}, {"measurement": "CLH", "setting": "[7]", "value": 19, "unit": "µL/min"}, {"measurement": "clearance", "setting": "[8]", "value": 2, "unit": "mL/min/kg"}, {"measurement": "Vd", "setting": "[9]", "value": 2.8, "unit": "L/kg"}, {"measurement": "Vd", "setting": "[10]", "value": 3.1, "unit": "L/kg"}, {"measurement": "Vd", "setting": "[11]", "value": 2, "unit": "L/kg"}]}, {"smiles": "NC1(C(=O)N[C@@H](CCO)c2ccc(Cl)cc2)CCN(c2ncnc3[nH]ccc23)CC1", "note": "[CAPIVASERTIB]", "values": [{"measurement": "IC50", "setting": "[1]", "value": 2320, "unit": "nM"}, {"measurement": "IC50", "setting": "KOSC-2", "value": 40.4, "unit": "µM"}, {"measurement": "IC50", "setting": "[2]", "value": 40.4, "unit": "µM"}, {"measurement": "clearance", "setting": "in vivo [12]", "value": 86, "unit": "mL/min/kg"}, {"measurement": "clearance", "setting": "in vivo [13]", "value": 37, "unit": "mL/min/kg"}]}, {"smiles": "Cc1c(NCCN2CCCC2)cc(C(=O)CCC(F)(F)F)cc1N1CCN(c2ncnc3[nH]nc(Br)c23)CC1", "note": "[XL-418]", "values": [{"measurement": "inhibition in vivo at 50 mg/kg", "setting": "PC-3 [14]", "value": 52, "unit": "%"}, {"measurement": "inhibition in vivo at 100 mg/kg", "setting": "PC-3 [15]", "value": 90, "unit": "%"}]}, {"smiles": "Nc1ncccc1-c1nc2ccc(-c3ccccc3)nc2n1-c1ccc(C2(N)CCC2)cc1", "note": "[MIRANSERTIB]", "values": [{"measurement": "half-life", "setting": "[16]", "value": 55, "unit": "min"}]}]}
